Laboratory results as given in ChEMBL document CHEMBL3774347, “Docking and Linking of Fragments To Discover Jumonji Histone Demethylase Inhibitors” (J Med Chem, 2016).
Active and inactive are the calls of the source. The calls are words filed in the database; no cut-off is given here.

Tests used:
[1] = target: T1, Lysine-specific demethylase 4C (Homo sapiens, UniProt Q9H3R0); experiment: (§1) Inhibition of N-terminal His6-tagged KDM4C (1 to 352 residues) (unknown origin) expressed in Escherichia coli Rosetta 2(DE3)pLysS using biotinylated histone H3 (1 to 21 residues) lysine 9 trimethylated peptide/2 uM alpha-ketoglutarate as substrate/cofactor measured after 45 mins by TR-FRET assay
T1 sequence (Q9H3R0 whole entry): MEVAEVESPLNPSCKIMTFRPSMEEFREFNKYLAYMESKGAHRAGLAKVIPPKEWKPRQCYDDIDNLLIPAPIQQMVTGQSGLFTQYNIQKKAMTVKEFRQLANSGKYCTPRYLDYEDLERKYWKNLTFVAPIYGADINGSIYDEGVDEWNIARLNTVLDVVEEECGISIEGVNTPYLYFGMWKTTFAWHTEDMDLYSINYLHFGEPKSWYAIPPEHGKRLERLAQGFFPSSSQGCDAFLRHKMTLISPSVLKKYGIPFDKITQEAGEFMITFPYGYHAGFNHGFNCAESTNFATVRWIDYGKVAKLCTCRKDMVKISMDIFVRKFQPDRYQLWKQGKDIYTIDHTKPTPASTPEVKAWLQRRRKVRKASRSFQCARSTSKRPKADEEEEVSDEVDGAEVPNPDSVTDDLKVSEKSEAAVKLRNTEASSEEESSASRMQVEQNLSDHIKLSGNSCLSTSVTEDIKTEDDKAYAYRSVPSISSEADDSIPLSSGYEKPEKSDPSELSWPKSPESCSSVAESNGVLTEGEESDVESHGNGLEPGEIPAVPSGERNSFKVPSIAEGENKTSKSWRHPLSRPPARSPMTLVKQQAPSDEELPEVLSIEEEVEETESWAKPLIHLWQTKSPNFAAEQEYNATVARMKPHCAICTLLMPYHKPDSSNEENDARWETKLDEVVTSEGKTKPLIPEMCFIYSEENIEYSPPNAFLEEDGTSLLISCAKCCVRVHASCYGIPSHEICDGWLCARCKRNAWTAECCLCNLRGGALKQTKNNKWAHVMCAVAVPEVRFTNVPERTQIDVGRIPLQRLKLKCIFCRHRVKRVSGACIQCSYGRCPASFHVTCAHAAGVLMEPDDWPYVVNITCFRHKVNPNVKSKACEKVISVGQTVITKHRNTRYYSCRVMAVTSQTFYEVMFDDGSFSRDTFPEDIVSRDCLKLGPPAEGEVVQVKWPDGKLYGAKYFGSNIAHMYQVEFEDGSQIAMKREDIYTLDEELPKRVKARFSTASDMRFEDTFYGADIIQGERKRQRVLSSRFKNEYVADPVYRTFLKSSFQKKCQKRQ

[2] = Induction of aggregates formation assessed as particle formation up to 10 uM by dynamic light scattering method
[3] = target: T2, Lysine-specific demethylase 4C (Homo sapiens) (UniProt Q9H3R0); experiment: Binding affinity to N-terminal His6-tagged KDM4C (1 to 352 residues) (unknown origin) expressed in Escherichia coli Rosetta 2(DE3)pLysS at 1.7 mM by SYPRO Orange dye based thermal shift assay
T2 sequence (whole entry): T1 sequence (Q9H3R0 whole entry)

[4] = Inhibition of AmpC beta-lactamase (unknown origin)
[5] = target: T1, Lysine-specific demethylase 4C; experiment: Inhibition of N-terminal His6-tagged KDM4C (1 to 352 residues) (unknown origin) expressed in Escherichia coli Rosetta 2(DE3)pLysS using biotinylated histone H3 (1 to 21 residues) lysine 9 trimethylated peptide/50 uM alpha-ketoglutarate as substrate/cofactor measured after 45 mins by TR-FRET assay
[6] = target: T2, Lysine-specific demethylase 4C (Homo sapiens); experiment: as §1

SMILES | IC50 ([1]; read-out: IC50) [µM] | also measured
N#Cc1ccc(O)c(-c2cc(C(=O)O)ccn2)c1 | 6 | 
Cn1nccc1CNc1ccc(O)c(C(=O)O)c1 | 58 | Activity [2]: inactive
Cc1ccccc1CNc1ccc(O)c(C(=O)O)c1 |  | Activity [3]: Active; inhibition [4]: inactive
O=C(O)Cn1nnnc1COc1ccccc1 | 2320 | 
Cc1cc(O)c2c(CC(=O)O)cc(=O)oc2c1 | 176 | 
C[C@@H](NC(=O)c1cc(Cl)ccn1)C(=O)O | 1210 | 
O=C(Cc1cccc(Br)c1)Nc1ccc(O)c(-c2cc(C(=O)O)ccn2)c1 | 0.17 | IC50 ([5]; read-out: IC50): 3.4 µM
CC(=O)Nc1ccc(O)c(C(=O)O)c1 |  | inhibition [6]: inactive
O=C(O)c1ccnc(-c2cc(NCc3ccc(Br)cc3)ccc2O)c1 | 2.5 | 
O=C(O)[C@@H]1CC(=O)N(c2nccs2)C1 | 676 | 
O=C(O)c1ccnc(-c2cc(NCc3cccc4c3OCO4)ccc2O)c1 | 0.56 | 
CCCNC(=O)NC(C)(C)C(=O)O | 126 | 
COCC(=O)Nc1ccc(O)c(C(=O)O)c1 | 98 | Activity [2]: inactive
NC(=O)N[C@@H](Cc1c[nH]c2ccccc12)C(=O)O | 18.6 | 
O=C(O)CNC(=O)c1ccc2ccccc2n1 | 2810 | 
O=C(O)c1ccnc(-c2cc(NC(=O)c3cccc(O)c3)ccc2O)c1 | 0.46 | 
CN1CCN(C(=O)c2ccn(CC(=O)O)n2)CC1 | 387 | 
CC(=O)Nc1ccc(O)c(-c2ccccn2)c1 |  | IC50 [1]: Not Active; IC50 [5]: Not Active
CC(=O)c1ccccc1-c1cc(C(=O)O)ccn1 | 507 | 
O=C(O)c1cc(NCc2cccc3c2OCO3)ccc1O | 15 | 
Nc1ccc(O)c(-c2cc(C(=O)O)ccn2)c1 | 8.3 | 
NC(=O)N[C@H](Cc1c[nH]c2ccccc12)C(=O)O | 54.7 | 
O=C(O)c1ccnc(-c2cc(NC(=O)c3ccno3)ccc2O)c1 | 1.02 | 
CC(=O)N[C@@H](CCC(=O)O)C(=O)O | 2070 | 
O=C(O)c1ccnc(-c2cc(NC(=O)c3ccccc3O)ccc2O)c1 | 4.6 | 
CCNC(=S)Nc1ccc(O)c(C(=O)O)c1 | 165 | 
COc1ccc(N)cc1-c1cc(C(=O)O)ccn1 | 310 | 
O=C(Cc1ccccc1)Nc1ccc(O)c(-c2cc(C(=O)O)ccn2)c1 | 0.43 | IC50 ([5]; read-out: IC50): 17 µM
Cn1nccc1CNc1ccc(O)c(-c2cc(C(=O)O)ccn2)c1 | 0.77 | 
COc1ccc(CC(=O)Nc2ccc(O)c(-c3cc(C(=O)O)ccn3)c2)cc1 | 0.069 | IC50 ([5]; read-out: IC50): 3.7 µM
